Source: US4956355A, “Agents for the arrest and therapy of retroviral infections” (Colthurst Limited, priority 1987, dated 1990)

Columns and labels:
HXB cell line = test: Killing of HXB cells; assay type: cell-based, human; settings: 10^-4 molar
Method: (§1) 7. Analysis of nonspecific toxicity to the target cells with Compounds A and B. The VB, H9 and HXB cell lines were exposed to different concentrations of Compounds A and B as were normal human macrophages for the length of time the drug was in contact with each cell line as described in the above assays. Cell numbers were counted, and live versus dead were determined by Trypan blue exclusion assays. These tests were required to determine a therapeutic index between nonspecific toxic effects on the described cells, compared with potential effective antiviral effects in vitro (Example 6).

[1] = test system: HIV in VB T lymphoma cell line; test: Inhibition of HIV mediated cytopathic effects (multinucleated giant/syncytial cell formation) in acutely infected VB tumor cell line; assay type: cell-based
Method: (§2) 1. […] All three viral strains were grown in the Tissue Culture Laboratory of the AIDS Activity Division of San Francisco General Hospital where titers of […] infectious units per ml were routinely achieved.
(§3) 2. Source of cells: The VB cell line used in Example 1 is a T lymphoma cell line that is highly susceptible to infection with HIV, and expresses high levels of cell surface CD4 molecules. This cell line forms syncytia within two days after infection with all strains of HIV tested to date. […] This is used to quantitate infection in the absence of syncytial formation, infection being quantitated by immunofluorescence assays. The HXB/H9 cell line (Example 6) is an H9 cell population that chronically produces the HTLV-IIIB strain of HIV and is utilised in experiments testing antiviral effects on chronically infected cell lines. Human macrophages were prepared from peripheral blood mononuclear cells either obtained from the blood bank as a buffy coat, or as a leukophoresis preparation. Crowe et al. supra have devised an assay system that allows quantitation of HIV infection, and inhibition of infection using immunocytofluorographic analysis. In order to quantitate HIV infection in macrophages, they grow macrophages in Teflon (Trade Mark) culture vessels which maintain macrophages in suspension in vitro culture for up to six months. Cell surface and cytoplasmic immunofluorescence staining is then performed to quantitate antigens in macrophages by flow cytometry.
5. Inhibition of acute infection: Several assays were utilized to test for inhibition of acute infection; these included:
(a) Inhibition of multinucleated giant cell formation in acutely infected VB cells infected at a multiplicity of infection of 1, and scored two days after infection in the presence or absence of varying concentrations of drug, for the formation of multinucleated giant cells. (free virus is washed out after a one hour incubation pretreatment at room temperature). […] Supernatants were also isolated and the level of HIV p24 antigen determined. Infectious virus was measured in treated cultures by performing a syncytial assay as described above.
(§4) Compounds A and B were tested for inhibition of T lymphoma cell cytopathic effect at various drug concentrations after acute infection with HIV for 48 hours. […] It is possible that the diminished effects noted in later experiments could have been secondary to drug stability problems.

HIV in HXB/H9 cell line = test: Antiviral testing of chronically HIV infected cell line HXB; assay type: cell-based; settings: other than killing with compound B at 10^-4 molar
Method: as §2
as §3, with “Human macrophages were prepared from peripheral blood mononuclear cells either obtained from the blood bank as a buffy coat, or as a leukophoresis preparation.” left out, “cytometry. […]” for “cytometry.”

HIV in human macrophages [2] = test: Inhibition of cytoplasmic HIV p24 antigen in HIV-infected macrophages; assay type: cell-based; settings: 10^-4 molar; three donors; FIG. 4
Method: as §2, §3
3. Flow cytometry: An Ortho Cytofluorgraf II-S (Trade Mark) that has a biohazard containment flow cell was used for analysis of HIV infected samples. HIV p24 antigens were detected utilizing a mouse monoclonal anti-p24 (du Pont), and mouse antibodies were identified utilizing an FITC conjugated goat anti-mouse IgG. […]
The cells from the experiment described in Example 3 were analysed, and the cytoplasm was analysed for the presence of HIV p24 to directly test whether HIV p24 antigen production was inhibited within those infected cells. […]

normal human macrophages = test: Nonspecific toxicity to normal human macrophages; assay type: cell-based
Method: as §1

tumor cell lines = test: Toxicity to tumor cell lines, Examples 1 to 7; assay type: cell-based, human; settings: 10^-4 molar; all experiments of Examples 1 to 7
Method: as §1

[3] = test system: HIV in chronically infected human macrophages; test: Antiviral testing of chronically HIV infected macrophages; assay type: cell-based
Description: as §3
3. Flow cytometry: An Ortho Cytofluorgraf II-S (Trade Mark) that has a biohazard containment flow cell was used for analysis of HIV infected samples. HIV p24 antigens were detected utilizing a mouse monoclonal anti-p24 (du Pont), and mouse antibodies were identified utilizing an FITC conjugated goat anti-mouse IgG.
6. Analysis of chronically infected cells: To determine whether compounds A and B are effective at inhibiting HIV expression in macrophages and chronically infected T cells, the following experiments were performed. The chronically infected T cell line, HXB/H9 was exposed to various concentrations of drug for four days in vitro. At four days, the HXB cells were assayed for the presence of p24 intracytoplasmically, and supernatants were assayed for the presence of infectious virus as described above.
Because macrophages can be infected and produce HIV for very long periods of time without substantial loss of viability, chronically infected cells were tested, specifically a population that was between 30 and 50% HIV antigen positive, for inhibition of cytoplasmic HIV p24 antigen production. FIG. 5 indicates the results of three separate experiments carried out.

[4] = test system: HIV in activated peripheral blood lymphocytes; test: Inhibition of HIV mediated cytopathic effects / p24 antigen production in activated peripheral blood lymphocytes; assay type: cell-based; settings: for p24 antigen production: activated PBL, about 7 days after infection, FIG. 2
Method: as §2
(§5) 4. HIV soluble p24 antigen detection: Soluble p24 antigens were measured with the Abbott HIV antigen detection system.
(b) Although the VB T lymphoma cell line behaves in a similar manner to peripheral blood CD4 positive T lymphocytes in regard to HIV induced cytopathic effects, the above described experiments were performed on phytohemagglutinin (PHA) activated lymphocytes to determine whether lymphocytes are more or less sensitive to Compounds A and B than is the VB cell line. In this assay system, at the time that multinucleated giant cells appeared within infected lymphocyte cultures, the supernatants were analyzed for the presence of HIV p24 antigens and were titered on indicator VB lymphoma cells to determine the titer of infectious virus present at each point.
To test whether the effects of compounds A and B on acute VB T lymphoma infection would be mimicked by activated peripheral blood lymphocytes (PBC), HIV at a multiplicity of infection of one was added to lymphocytes that had been activated for 48 hours with 2 μg per ml of PHA. After the initial infection for one hour, the activated lymphocytes were washed and resuspended for the one week of culture. Multinucleated giant cells began to form approximately 7 days after the initial infection, at which time the culture supernatants were harvested and tested for the presence of HIV p24 antigens. The accumulation of HIV p24 antigens in the supernatant is representative of production of HIV from infected cells.

HIV in human macrophages [5] = test: Inhibition of HIV production in normal human macrophages (supernatant p24, acute infection); assay type: cell-based
Method: as §2, §3, §5
(c) To test whether Compounds A and B were effective at blocking acute infection of macrophages, macrophages from Teflon cultures were exposed at a multiplicity of 1 to HIV-DV in the presence or absence of various concentrations of drug (Examples 3-5). Normally, HIV expression peaks in human macrophages at approximately ten days after initial infection. Therefore, after infection for one hour at room temperature, followed by a wash and resuspension of the macrophages in various drug concentrations, macrophages were stained for the presence of p24 antigen at day ten. Culture supernatants from these macrophages were assayed for the presence of soluble p24, and infectious virus as described above.
To test whether compounds A and B might be active at inhibiting infection of normal human macrophages, a spectrum of drug concentrations were tested for inhibition of acute infection, and inhibition of HIV expression in chronically infected macrophages. […] After acute infection (one hour) cells were incubated in various concentrations of compounds A and B, and 7 days after the initial infection supernatants were harvested for p24 antigen quantitation. […]

[6] = test system: peripheral blood lymphocytes; test: Nonspecific toxicity to peripheral blood lymphocytes; assay type: cell-based, human
VB T lymphoma cell line = test: Nonspecific toxicity to VB cell line; assay type: cell-based, human; settings: 10^-4 molar
Method: as §1, §4

HIV = test: Oral dehydroepiandrosterone sulphate in AIDS patients, T4 cell count; assay type: in vivo, human patients; settings: patients X and Y, 300 mg once per day then 100 mg, day 5 to day 17
Method: Dehydroepiandrosterone sulphate was measured into unit doses of 300 mg and 100 mg and each unit dose enclosed in a soft gelatin capsule.
(A) A patient sero positive for HIV and diagnosed as suffering from AIDS was treated as follows. For twelve consecutive days, the patient was treated by administering the encapsulated compound orally to the patient. For the first eleven days, a unit dose of 300 mg was administered, once per day. On the twelfth day, the patient was given a single unit dose of 100 mg of the compound.
Blood samples were taken from the patients on five occasions over the twenty-six day period. The first tests were carried out on each patient on day 1 and included measurements of T1, T4 and T8 cell counts, as well as, sedimentation rate. The treatment commenced on day 5, and continued to day 17. From day 5 to day 16, each patient, as already discussed, received a single unit dose of 300 mg of dehydroepiandrosterone sulphate orally and on day 17 100 mg was administered. The aforementioned tests were repeated on each patient on day 9, day 17, day 24 and day 26.

## C[C@]12CC[C@H](O)C[C@@H]1CC[C@@H]1[C@@H]2CC[C@]2(C)C(=O)[C@H](Br)C[C@@H]12 [B, 16α-bromoepiandrosterone]
HXB cell line
  killing of HXB cells: killing
[1]; VB cells, acute infection, 48 hours, FIG. 1, average of two experiments
  inhibition of HIV mediated multinucleated syncytial cell formation, compared with compound A: more active
[1]; acute infection
  antiviral effects in comparison with AZT, T lymphoma cells: inferior
[1]; acute infection, conclusions
  antiviral effect in acute infection studies of T lymphoma cells: mild antiviral effect
[1]; compounds diluted in DMSO, possibly secondary to drug stability problems
  inhibition of cytopathic effect in two subsequent experiments: less striking effect
HIV in HXB/H9 cell line
  inhibition of HIV production of cytopathic effects in chronically infected lymphoma cell line: no specific inhibition
HIV in human macrophages [2]
  HIV p24 cytoplasmic antigen production: substantially inhibited
Normal human macrophages; 10^-4 molar
  extreme toxicity seen in VB cells, in macrophages: not shared by either the normal peripheral blood lymphocytes or macrophages
Normal human macrophages; 10^-4 to 10^-8 molar
  toxicity in normal macrophages: not appreciable toxicity
Tumor cell lines
  toxicity to tumor cell lines: appreciable toxicity
[3]; 10^-4 and 10^-5 molar, FIG. 5 vs FIG. 4
  inhibition compared with inhibition of acute infection of macrophages: somewhat less than the inhibition of acute infection of macrophages
[3]; both 10^-4 and 10^-5 molar, three experiments, FIG. 5
  inhibition of cytoplasmic HIV p24 antigen production in chronically infected macrophages: some inhibition
[4]; 10^-4 molar
  p24 antigen production: moderately inhibited
[4]; 10^-5 molar
  p24 antigen production: slightly less inhibited
[4]; acute infection
  antiviral effects in comparison with AZT, lymphocytes: inferior
[4]; acute infection, conclusions
  antiviral effect in acute infection studies of lymphocytes: mild antiviral effect
HIV in human macrophages [5]; 10^-4 through 10^-8 molar, 7 days after acute infection, FIG. 3
  decrease in production of HIV p24 antigens (supernatant): approximately 50%
HIV in human macrophages [5]; in vitro, reproducible, six separate monocyte/macrophage donors
  HIV infection and HIV expression in macrophages: inhibit HIV infection and HIV expression in macrophages
[6]; 10^-4 and 10^-5 molar
  toxicity with the PBL cultures: No appreciable toxicity
[6]; 10^-4 molar
  extreme toxicity seen in VB cells, in normal peripheral blood lymphocytes: not shared by either the normal peripheral blood lymphocytes or macrophages
[6]; 10^-4 to 10^-8 molar
  toxicity to peripheral blood lymphocytes: nor was there appreciable toxicity
VB T lymphoma cell line
  toxicity to VB T lymphoma cell line: extremely toxic

## C[C@]12CC[C@H](OS(=O)(=O)O)CC1=CC[C@@H]1[C@@H]2CC[C@]2(C)C(=O)CC[C@@H]12 [dehydroepiandrosterone sulphate]
HIV
  T4 cell count: stabilise
